Assays:
Experiment in all cases: relative viability (nuclei count vs DMSO), 5 days (fraction); higher = more cells survive
[1] = compound: CN(C)C(=N)NC(=N)N [Metformin] + CS(=O)(=O)N1CCN(Cc2cc3nc(-c4cccc5[nH]ncc45)nc(N4CCOCC4)c3s2)CC1 [Pictilisib] (partner 1 µM)
Outline: (§1)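 After 5 days of treatment, lung cancer cells in 1536-well plates were fixed and stained in a single step (final 0.05% Triton X-100, 1% formaldehyde, 1 ug/ml Hoechst) and their nuclei counted on 4× images. Treatment had been applied by pin tool the day after seeding as one drug alone or as a fixed anchor-drug dose with five library-drug doses (not always all listed) in √10 steps. Relative viability is the nuclei count of treated wells divided by that of vehicle wells, and values are medians of duplicate plates.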

[2] = compound: N#CC1(c2ccc(NC(=O)c3cccnc3NCc3ccncc3)cc2)CCCC1 [Apatinib] + NC(=O)Nc1cc(-c2cccc(F)c2)sc1C(=O)N[C@H]1CCCNC1 [AZD7762] (partner 0.2 µM)
Outline: as §1

[3] = compound: CN(C)C(=N)NC(=N)N [Metformin] + CCNC(=O)c1noc(-c2cc(C(C)C)c(O)cc2O)c1-c1ccc(CN2CCOCC2)cc1 [Luminespib] (partner 0.01 µM)
Outline: as §1

[4] = compound: N#CC1(c2ccc(NC(=O)c3cccnc3NCc3ccncc3)cc2)CCCC1 [Apatinib] + COc1cccc2cc(-c3nc([C@H]4CC[C@H](C(=O)O)CC4)n4ncnc(N)c34)[nH]c12 [OSI-027] (partner 0.5 µM)
Outline: as §1

Cell Line | relative viability ([1]; first compound 10 µM) | relative viability ([1]; first compound 31.62 µM) | relative viability ([1]; first compound 100 µM) | relative viability ([1]; first compound 316.23 µM) | relative viability ([1]; first compound 1000 µM) | relative viability ([2]; first compound 0.08 µM) | relative viability ([2]; first compound 0.253 µM) | relative viability ([2]; first compound 0.8 µM) | relative viability ([2]; first compound 2.53 µM) | relative viability ([2]; first compound 8 µM) | relative viability ([3]; first compound 10 µM) | relative viability ([3]; first compound 31.62 µM) | relative viability ([3]; first compound 100 µM) | relative viability ([3]; first compound 316.23 µM) | relative viability ([3]; first compound 1000 µM) | relative viability ([4]; first compound 0.08 µM) | relative viability ([4]; first compound 0.253 µM) | relative viability ([4]; first compound 0.8 µM) | relative viability ([4]; first compound 2.53 µM) | relative viability ([4]; first compound 8 µM)
NCI-H1703 | 0.291 | 0.309 | 0.29 | 0.291 | 0.226 | 0.147 | 0.127 | 0.123 | 0.0918 | 0.127 | – | – | – | – | – | – | – | – | – | –
NCI-H2228 | 0.306 | 0.294 | – | 0.227 | 0.448 | – | – | – | – | – | 0.133 | 0.185 | 0.157 | 0.165 | 0.209 | 0.472 | 0.761 | 0.547 | 0.429 | 0.448
NCI-H1563 | 0.605 | 0.651 | 0.62 | 0.624 | 0.646 | – | – | – | – | – | 0.588 | 0.629 | 0.577 | 0.407 | 0.584 | 0.812 | 0.865 | 0.731 | 0.706 | 0.718
NCI-H1623 | – | – | – | – | – | – | – | – | – | – | 0.475 | 0.429 | 0.596 | 0.487 | 0.755 | 0.443 | 0.423 | 0.404 | 0.351 | 0.385
Calu-6 | 0.733 | 0.886 | 0.769 | 0.531 | 0.413 | – | – | – | – | – | – | – | – | – | – | – | – | – | – | –
NCI-H1299 | 0.834 | 0.98 | 0.9 | 0.645 | 0.479 | – | – | – | – | – | – | – | – | – | – | – | – | – | – | –
NCI-H2009 | 0.795 | 0.922 | 0.846 | 0.779 | 0.763 | – | – | – | – | – | 1.07 | 1.09 | 1.08 | 1.02 | 0.93 | 0.796 | 0.617 | 0.536 | 0.337 | 0.193
A549 | 0.428 | 0.517 | 0.553 | 0.464 | 0.0878 | – | – | – | – | – | – | – | – | – | – | – | – | – | – | –
UMC-11 | 0.864 | 0.972 | 0.806 | 0.716 | 0.902 | – | – | – | – | – | 1.1 | 1.14 | 1.08 | 1.1 | 0.994 | 0.574 | 0.437 | 0.479 | 0.464 | 0.312
NCI-H522 | – | – | – | – | – | 0.884 | 1 | 0.867 | 0.623 | 0.794 | 1.4 | 1.27 | 1.65 | 1.54 | 1.33 | 0.731 | 0.752 | 0.703 | 0.72 | 0.691
NCI-H520 | 0.302 | 0.31 | 0.28 | 0.258 | 0.361 | – | – | – | – | – | 0.265 | 0.224 | 0.211 | 0.223 | 0.23 | 0.262 | 0.229 | 0.219 | 0.25 | 0.224
NCI-H1650 | 0.791 | 0.702 | 0.721 | 0.607 | 0.504 | – | – | – | – | – | 0.189 | 0.212 | 0.203 | 0.218 | 0.218 | – | 0.776 | 0.456 | 0.463 | 0.541
SK-MES-1 | 0.424 | 0.34 | 0.362 | 0.378 | 0.414 | – | – | – | – | – | 0.83 | 0.889 | 0.95 | 0.747 | 0.744 | 0.589 | 0.585 | 0.6 | 0.496 | 0.37

Reference: the supplement of paper PMC10307832
